The source of these data is patent US6548307B2, “Determination of logP coefficients via a RP-HPLC column” (Pfizer Inc., priority 2000, dated 2003).

The conditions of series [1]: Shake-flask data from literature references; cited from earlier work.
The nature of series [2]: physchem. The following applies: for log k′2 (capacity factor extrapolated to 0% methanol): Average of at least three determinations on different LC-ABZ columns, 20 mM MOPS pH 7.4/methanol with octanol; for Residual: logPoct minus ElogPoct. As for the experimental part:
The mobile phase consisted, in all cases, of 20 mM MOPS buffer at pH 7.4, and methanol in varying proportions from 70 to 15% v/v. […] The capacity factors data (k′=(tR−t0)/t0) obtained at various amounts of methanol were then extrapolated to 0% methanol and reported as log k′w, using a linear procedure. […] Injections of pure methanol were used to determine t0, i.e. the dead time, while tR has the usual meaning of the retention time for the analyte.
All the chromatographic runs were performed on a HP-1100 HPLC ChemStation at the ambient temperature. The columns used were Supelcosil LC-ABZ, 5μm, 4.6×50 mm. […] Columns having different silica bond lots were tested to ensure reproducibility. Samples were dissolved in 1:1 methanol/water at a concentration of 10-30 μg/mL. The flow rate was 0.5, 1 or 2 mL/min, depending on the lipophilicity range. Three lipophilicity ranges were established using, in all cases, three points for the extrapolation to k′w, as described in the table below.
The samples were placed in the appropriate range by estimating their lipophilicity via computed values, or by prior experience with a given class. In each case the entire group of samples was run before the column is equilibrated to the next condition, in an automated fashion, and the initial estimation need not be very accurate. The data analysis was automated via in-house software yielding the ElogPoct values, directly from the chromatographic data files.

Series [3] in a line: Shake-flask octanol/buffer partition coefficient (logPoct). It is filed as physicochemical. The note with it: Shake-flask data, this work (in-house, octanol/MOPS buffer, overnight shaking). The text has this:
The shake-flask logPoct data were taken from the literature or determined in-house, except when data were not available or could not be determined experimentally due to the high lipophilicity of the compound. In such cases a computed value was used. The shake-vial experimental measurements performed in-house were all conducted at least in duplicate, in amber glass vials and, in some cases, with varying ratios of octanol and MOPS buffer, mutually pre-saturated prior to the experiment. Overnight shaking was used. HPLC analysis at different wavelengths, after centrifugation and separation of the phases, was used for the quantitative analysis, using both phases.

[4] abbreviates: Data from Equation 3 (from log k′w).

Structures are written as SMILES. Like-named read-outs stand apart in the source and are kept apart here.

Consider `Oc1ncnc2[nH]ncc12` [Allopurinol], for which, in series [1], the logPoct is listed as −0.55. For the same molecule, in series [2], the “log k′2 (capacity factor extrapolated to 0% methanol)” value was −0.89 and the Residual came to 0.30. Moreover, the ElogPoct in series [2] (pH 7.4) is given as −0.85.

By chromatographic logP is commonly meant a lipophilicity value derived from retention on a column. A low value points to lower lipophilicity. `COC1=CC(=O)C[C@@H](C)[C@]12Oc1c(Cl)c(OC)cc(OC)c1C2=O` [Griseofulvin]: the logPoct in series [1] is recorded as 2.18. For the same molecule, in series [2], the chromatographic logP is 2.59, the “log k′2 (capacity factor extrapolated to 0% methanol)” value is 2.21 and the Residual is −0.41.

On to `CC/C(=C(/CC)c1ccc(O)cc1)c1ccc(O)cc1` [Diethylstilbestrol], for which, in series [1], the logPoct is on record as 5.07. Moreover, in series [2], the chromatographic logP turned out to be 4.75, the “log k′2 (capacity factor extrapolated to 0% methanol)” value is 4.16 and the Residual was found to be 0.32.

Turning to `Oc1cc(Cl)cc(Cl)c1` [3,5-Dichlorophenol], the logPoct in series [1] is 3.68. Also, in series [2], the chromatographic logP came out at 3.91, the “log k′2 (capacity factor extrapolated to 0% methanol)” value is 3.40 and the Residual is reported as −0.23.

Consider `NC(=O)N1c2ccccc2C=Cc2ccccc21` [Carbamazepine], for which the logPoct in series [1] is given as 2.19. In addition, in series [2], the chromatographic logP came out at 2.02, the “log k′2 (capacity factor extrapolated to 0% methanol)” value is recorded as 1.70 and the Residual was found to be 0.17.

For `CC(=O)Nc1ccc(O)cc1` [Acetaminophen], in series [2], the chromatographic logP stood at 0.11, the “log k′2 (capacity factor extrapolated to 0% methanol)” value is −0.02 and the Residual is listed as 0.40.

As for `CSc1ncnc2c1ncn2[C@@H]1O[C@H](CO)[C@@H](O)[C@H]1O` [Methylthiolnosine], in series [2], the “log k′2 (capacity factor extrapolated to 0% methanol)” value is on record as 0.19 and the Residual was −0.25. In series [2] (setting [4]), this molecule had an ElogPoct of 0.34. The molecule further yielded a logPoct in series [3] of 0.09.

As to `Cc1cccc(N(C)C(=S)Oc2ccc3ccccc3c2)c1` [Tolnaftate], in series [2], the chromatographic logP was 5.18, the “log k′2 (capacity factor extrapolated to 0% methanol)” value is 4.55 and the Residual came to 0.22.

Regarding `O=C1Nc2ccc(Cl)cc2C(c2ccccc2Cl)=NC1O` (centres unmarked) [Lorazepam], in series [2], the chromatographic logP is 2.75, the “log k′2 (capacity factor extrapolated to 0% methanol)” value is given as 2.36 and the Residual is on record as −0.24.

On to `Brc1cnc2ccccc2c1` [3-Bromoquinoline], for which the logPoct in series [1] is on record as 3.03. Further, in series [2], the chromatographic logP was 2.95, the “log k′2 (capacity factor extrapolated to 0% methanol)” value was 2.54 and the Residual is 0.08.

Take `O=C1CN=C(c2ccccn2)c2cc(Br)ccc2N1` [Bromazepam]: the logPoct in series [1] is given as 1.65. In series [2], the chromatographic logP is 1.39, the “log k′2 (capacity factor extrapolated to 0% methanol)” value was 1.13 and the Residual turned out to be 0.26.

On to `NC(=O)N/N=C/c1ccc([N+](=O)[O-])o1` [Nitrofurazone], for which, in series [1], the logPoct is 0.23. In series [2], the chromatographic logP was 0.24, the “log k′2 (capacity factor extrapolated to 0% methanol)” value is given as 0.10 and the Residual is listed as −0.01.

Turning to `C[C@]12C=CC(=O)C=C1CC[C@@H]1[C@@H]2[C@@H](O)C[C@@]2(C)[C@H]1CC[C@]2(O)C(=O)CO` [Prednisolone], in series [2], the chromatographic logP stood at 1.84, the “log k′2 (capacity factor extrapolated to 0% methanol)” value is reported as 1.54 and the Residual was −0.24.

Take `CC(=O)c1ccccc1` [Acetophenone]: in series [2], the chromatographic logP came to 1.59, the “log k′2 (capacity factor extrapolated to 0% methanol)” value was 1.31 and the Residual is recorded as −0.01.

Take `Cc1ncc([N+](=O)[O-])n1CCO` [Metronidazole]: the logPoct in series [1] is reported as −0.02. For the same molecule, in series [2], the “log k′2 (capacity factor extrapolated to 0% methanol)” value is reported as −0.32 and the Residual is 0.20. In series [2] (pH 7.4), this molecule came in with an ElogPoct of −0.22.

Regarding `Oc1cccc(Cl)c1` [3-Clorophenol], in series [2], the “log k′2 (capacity factor extrapolated to 0% methanol)” value was 2.49 and the Residual is recorded as −0.40.

For `C[C@]12CC[C@@H]3c4ccc(O)cc4CC[C@H]3[C@@H]1CC[C@@H]2O` [Estradiol], in series [2], the chromatographic logP came out at 3.84.

`CS(=O)(=O)c1ccc([C@@H](O)[C@@H](CO)NC(=O)C(Cl)Cl)cc1` [Thiamphenicol]: the logPoct in series [1] is on record as −0.27. In series [2], the “log k′2 (capacity factor extrapolated to 0% methanol)” value is on record as −0.24 and the Residual was −0.14. For the same molecule, in series [2] (pH 7.4), the ElogPoct is −0.13.

As to `c1ccc2ncccc2c1` [Quinoline], in series [2], the chromatographic logP worked out at 1.86, the “log k′2 (capacity factor extrapolated to 0% methanol)” value is 1.56 and the Residual turned out to be 0.17.

With `C[C@]12CC[C@H]3[C@@H](CCC4=CC(=O)CC[C@@]43C)[C@@H]1CC[C@@H]2O` [Testosterone], the logPoct in series [1] is reported as 3.29. Also, in series [2], the “log k′2 (capacity factor extrapolated to 0% methanol)” value is 2.74 and the Residual came to 0.12. This molecule also returned an ElogPoct in series [2] (setting [4]) of 3.17.

Take `CC(=O)CCCCn1c(=O)c2c(ncn2C)n(C)c1=O` [Pentoxifylline]: the logPoct in series [1] is 0.29. In series [2], the chromatographic logP is 0.31, the “log k′2 (capacity factor extrapolated to 0% methanol)” value is 0.16 and the Residual was −0.02.

Turning to `CC(=O)OCC(=O)[C@@]1(O)CC[C@H]2[C@@H]3CCC4=CC(=O)CC[C@]4(C)[C@H]3[C@@H](O)C[C@@]21C` [Hydrocortisone-21-acetate], in series [2], the “log k′2 (capacity factor extrapolated to 0% methanol)” value is 1.93 and the Residual is −0.08. The molecule further returned an ElogPoct in series [2] (setting [4]) of 2.27.

On to `CN1C(=O)C(O)N=C(c2ccccc2Cl)c2cc(Cl)ccc21` (centres unmarked) [Lormetazepam], for which, in series [1], the logPoct is given as 2.72. Further, in series [2], the chromatographic logP is 2.8, the “log k′2 (capacity factor extrapolated to 0% methanol)” value is reported as 2.40 and the Residual is on record as −0.08.

For `C[C@]12C=CC(=O)C=C1CC[C@@H]1[C@@H]2C(=O)C[C@@]2(C)[C@H]1CC[C@]2(O)C(=O)CO` [Prednisone], in series [2], the “log k′2 (capacity factor extrapolated to 0% methanol)” value is listed as 1.21 and the Residual was −0.02.

Turning to `C[C@@H]1C[C@H]2[C@@H]3CCC4=CC(=O)C=C[C@]4(C)[C@@]3(F)[C@@H](O)C[C@]2(C)[C@@]1(O)C(=O)CO` [Dexamethasone], the logPoct in series [1] was 1.83. For the same molecule, the chromatographic logP in series [2] was 2.39.

`c1ccc2ccccc2c1` [Naphthalene]: in series [2], the chromatographic logP came out at 3.53, the “log k′2 (capacity factor extrapolated to 0% methanol)” value was 3.06 and the Residual is recorded as −0.16.

Turning to `O=[N+]([O-])c1ccc(/C=N/O)o1` [Nifuroxime], in series [2], the chromatographic logP turned out to be 1.36, the “log k′2 (capacity factor extrapolated to 0% methanol)” value was 1.11 and the Residual was −0.08. This molecule showed a logPoct in series [3] of 1.28.

For `c1ccc(-c2ccc(C(c3ccccc3)n3ccnc3)cc2)cc1` (centres unmarked) [Bifonazole], the logPoct in series [1] is 4.77. In series [2], the chromatographic logP amounted to 4.98, the “log k′2 (capacity factor extrapolated to 0% methanol)” value is listed as 4.37 and the Residual was −0.21.
